The record followed here is patent publication US6664251B2, “Benzothiazine derivative” (Daiichi Suntory Pharma Co., Ltd., priority 1993, dated 2003).

The test system of one assay is α1 receptor. Description: Anti-α1 action: tonic contraction of isolated thoracic aorta induced by norepinephrine. The conditions noted are these: tonic contraction induced by 10^−5 M norepinephrine (NE) taken as 100%, Hartley male guinea pig thoracic aorta; for Anti α1 action (% of Control) 10^−7 M: test drug 10^−7 M; for Anti α1 action (% of Control) 10^−8 M: test drug 10^−8 M. As to the method: The thoracic aorta of each Hartley male guinea pig (body weight: 300-500 g) was excised. A preparation cut in a helical form was suspended under 1 g load in a Magnus cylinder filled with the Tyrode solution which had been aerated with a gas mixture of 95% O2+5% CO2 and maintained at 37° C. Using an isometric transducer (“TB-612J”, manufactured by NIHON KOHDEN) and a pressure preamplifier (“AP-620G”, manufactured by NIHON KOHDEN), variations in tension were measured. The isometric tensions were recorded on a thermal pen-writing recorder (“WT-647G”, manufactured by NIHON KOHDEN).
Taking the tonic contraction induced by 10^−5 M norepinephrine (NE) as 100%, the percent contractions upon addition of each test drug at 10^−8 and 10^−7 M were determined as anti-α1 action.

A further assay concerns serotonin-2 receptor. Description: Anti-serotonin action (anti-5-HT action): contraction of isolated superior mesenteric artery induced by serotonin. The conditions noted are these: contraction induced by 10^−5 M serotonin (5-HT) taken as 100%, Hartley male guinea pig superior mesenteric artery; for Anti 5-HT action (% of Control) 10^−6 M: test drug 10^−6 M; for Anti 5-HT action (% of Control) 10^−7 M: test drug 10^−7 M. As to the method:
(1) Anti-Serotonin Action (Anti-5-HT Action)
A preparation cut in a helical form was suspended under 0.3 g load in a Magnus cylinder filled with the Tyrode solution which had been aerated with a gas mixture of 95% O2+5% CO2 and maintained at 37° C. Using an isometric transducer (“UL-10”, manufactured by SHINKOH K.K.) and a pressure preamplifier (“DSA-605A”, manufactured by SHINKOH K.K.), variations in tension were measured. The isometric tensions were recorded on a pen-writing recorder (“VP-6537A”, manufactured by NATIONAL K.K.). Taking the contraction induced by 10^−5 M serotonin (5-HT) as 100%, the percent contractions in the presence of each test drug at 10^−7 and 10^−6 M were determined as anti-5-HT action.

As for `O=S1(=O)c2ccccc2C2(CN1CCCN1CCN(c3ccc(O)cc3)CC1)OCCO2` [Compound No. 37, 2-[3-[4-(4-hydroxyphenyl)piperazin-1-yl]propyl]-3,4-dihydro-2H-1,2-benzothiazin-4-one 1,1-dioxide ethylene acetal], in the assay on α1 receptor, the “Anti α1 action (% of Control) 10^−7 M” value is 96.2 % of Control and the “Anti α1 action (% of Control) 10^−8 M” value is given as 100 % of Control. For the same molecule, in the assay with serotonin-2 receptor, the “Anti 5-HT action (% of Control) 10^−6 M” value was 8.3 % of Control and the “Anti 5-HT action (% of Control) 10^−7 M” value is recorded as 15.7 % of Control.

As to `O=C(c1ccc(F)cc1)C1CCN(CCCN2CC3(OCCO3)c3ccccc3S2(=O)=O)CC1` [Compound No. 40, 2-[3-[4-(4-fluorobenzoyl)piperidino]-propyl]-3,4-dihydro-2H-1,2-benzothiazine-4-spiro-2′-(1′,3′-dioxolan) 1,1-dioxide], in the assay with α1 receptor, the “Anti α1 action (% of Control) 10^−7 M” value is 73.2 % of Control and the “Anti α1 action (% of Control) 10^−8 M” value is 98.3 % of Control. Moreover, in the assay on serotonin-2 receptor, the “Anti 5-HT action (% of Control) 10^−6 M” value is reported as 13.4 % of Control and the “Anti 5-HT action (% of Control) 10^−7 M” value is reported as 37.4 % of Control.

For the molecule `O=S1(=O)c2ccccc2C2(CN1CCCN1CCN(c3ccccn3)CC1)OCCO2` [Compound No. 46, 2-[3-[4-(2-pyridyl)piperazin-1-yl]-propyl]-3,4-dihydro-2H-1,2-benzothiazin-4-one 1,1-dioxide ethylene acetal], in the assay on α1 receptor, the “Anti α1 action (% of Control) 10^−7 M” value is recorded as 97.4 % of Control and the “Anti α1 action (% of Control) 10^−8 M” value is recorded as 100 % of Control. Besides, in the assay on serotonin-2 receptor, the “Anti 5-HT action (% of Control) 10^−6 M” value is on record as 5.5 % of Control and the “Anti 5-HT action (% of Control) 10^−7 M” value is recorded as 39.8 % of Control.

Turning to `COC1(OC)CN(CCCN2CCN(c3ccc(F)cc3)CC2)S(=O)(=O)c2ccccc21` [Compound No. 55, 2-[3-[4-(4-fluorophenyl)piperazin-1-yl]propyl]-4,4-dimethoxy-3,4-dihydro-2H-1,2-benzothiazine 1,1-dioxide], in the assay with α1 receptor, the “Anti α1 action (% of Control) 10^−7 M” value was 89.2 % of Control and the “Anti α1 action (% of Control) 10^−8 M” value was 100 % of Control. In the assay on serotonin-2 receptor, the “Anti 5-HT action (% of Control) 10^−6 M” value is recorded as 7.4 % of Control and the “Anti 5-HT action (% of Control) 10^−7 M” value is given as 23.4 % of Control.

With `COC1=CN(CCCN2CCN(c3ccc(F)cc3)CC2)S(=O)(=O)c2ccccc21` [Compound No. 56, 2-[3-[4-(4-fluorophenyl)piperazin-1-yl]propyl]-4-methoxy-2H-1,2-benzothiazine 1,1-dioxide], in the assay with α1 receptor, the “Anti α1 action (% of Control) 10^−7 M” value is recorded as 69.5 % of Control and the “Anti α1 action (% of Control) 10^−8 M” value is on record as 95.4 % of Control. In the assay on serotonin-2 receptor, the “Anti 5-HT action (% of Control) 10^−6 M” value was 16.9 % of Control and the “Anti 5-HT action (% of Control) 10^−7 M” value is 60.8 % of Control.

As to `COC1CN(CCCN2CCN(c3ccc(F)cc3)CC2)S(=O)(=O)c2ccccc21` (centres unmarked) [Compound No. 57, 2-[3-[4-(4-fluorophenyl)piperazin-1-yl]propyl]-4-methoxy-3,4-dihydro-2H-1,2-benzothiazine 1,1-dioxide], in the assay with α1 receptor, the “Anti α1 action (% of Control) 10^−7 M” value is 81.6 % of Control and the “Anti α1 action (% of Control) 10^−8 M” value is 97.3 % of Control. Also, in the assay with serotonin-2 receptor, the “Anti 5-HT action (% of Control) 10^−6 M” value was 10.0 % of Control and the “Anti 5-HT action (% of Control) 10^−7 M” value was 22.0 % of Control.

`O=S1(=O)c2ccccc2C2(CN1CCCN1CCN(c3ccc(F)cc3)CC1)OCCO2` [Compound No. 62, 2-[3-[4-(4-fluorophenyl)piperazin-1-yl]propyl]-3,4-dihydro-2H-1,2-benzothiazin-4-one 1,1-dioxide ethylene acetal]: in the assay on α1 receptor, the “Anti α1 action (% of Control) 10^−7 M” value is listed as 53.1 % of Control and the “Anti α1 action (% of Control) 10^−8 M” value is given as 98.1 % of Control. Also, in the assay with serotonin-2 receptor, the “Anti 5-HT action (% of Control) 10^−6 M” value is 3.3 % of Control and the “Anti 5-HT action (% of Control) 10^−7 M” value is reported as 14.1 % of Control.

Turning to `O=S1(=O)c2ccccc2C2(CN1CCCN1CCN(c3ccc(F)cc3)CC1)OCCCO2` [Compound No. 64, 2-[3-[4-(4-fluorophenyl)piperazin-1-yl]propyl]-3,4-dihydro-2H-1,2-benzothiazine-4-spiro-2′-(1′,3′-dioxane) 1,1-dioxide], in the assay on α1 receptor, the “Anti α1 action (% of Control) 10^−7 M” value is recorded as 84.9 % of Control and the “Anti α1 action (% of Control) 10^−8 M” value is listed as 97.3 % of Control. For the same molecule, in the assay on serotonin-2 receptor, the “Anti 5-HT action (% of Control) 10^−6 M” value is recorded as 13.8 % of Control and the “Anti 5-HT action (% of Control) 10^−7 M” value is 24.8 % of Control.

In the case of `O=S1(=O)c2ccccc2C2(CN1CCCN1CCN(c3ccc(F)cc3)CC1)SCCS2` [Compound No. 66, 2-[3-[4-(4-fluorophenyl)piperazin-1-yl]propyl]-3,4-dihydro-2H-1,2-benzothiazine-4-spiro-2′-(1′,3′-dithiolan) 1,1-dioxide], in the assay on α1 receptor, the “Anti α1 action (% of Control) 10^−7 M” value is given as 86.5 % of Control and the “Anti α1 action (% of Control) 10^−8 M” value is 100 % of Control. Moreover, in the assay with serotonin-2 receptor, the “Anti 5-HT action (% of Control) 10^−6 M” value is 2.8 % of Control and the “Anti 5-HT action (% of Control) 10^−7 M” value is 66.6 % of Control.

Consider `O=C(c1ccc(F)cc1)C1CCN(CCCN2CC(O)c3ccccc3S2(=O)=O)CC1` (centres unmarked) [Compound No. 76, 2-[3-[4-(4-fluorobenzoyl)piperidino]-propyl]-4-hydroxy-3,4-dihydro-2H-1,2-benzothiazine 1,1-dioxide], for which, in the assay with α1 receptor, the “Anti α1 action (% of Control) 10^−7 M” value is 88.2 % of Control and the “Anti α1 action (% of Control) 10^−8 M” value was 100 % of Control. In the assay with serotonin-2 receptor, the “Anti 5-HT action (% of Control) 10^−6 M” value is listed as 21.7 % of Control and the “Anti 5-HT action (% of Control) 10^−7 M” value is reported as 53.9 % of Control.

On to `O=S1(=O)c2ccccc2C(O)CN1CCCN1CCN(c2ccc(F)cc2)CC1` (centres unmarked) [Compound No. 77, 2-[3-[4-(4-fluorophenyl)piperazin-1-yl]propyl]-4-hydroxy-3,4-dihydro-2H-1,2-benzothiazine 1,1-dioxide], for which, in the assay with α1 receptor, the “Anti α1 action (% of Control) 10^−7 M” value is given as 79.6 % of Control and the “Anti α1 action (% of Control) 10^−8 M” value is given as 100 % of Control. Also, in the assay on serotonin-2 receptor, the “Anti 5-HT action (% of Control) 10^−6 M” value is 18.2 % of Control and the “Anti 5-HT action (% of Control) 10^−7 M” value is on record as 45.7 % of Control.

`COc1cccc2c1C1(CN(CCN3CCN(c4ccc(F)cc4)CC3)S2(=O)=O)OCCO1` [Compound No. 109, 2-[2-[4-(4-fluorophenyl)piperazin-1-yl]ethyl]-5-methoxy-3,4-dihydro-2H-1,2-benzothiazin-4-one 1,1-dioxide ethylene acetal]: in the assay with α1 receptor, the “Anti α1 action (% of Control) 10^−7 M” value is 96.1 % of Control and the “Anti α1 action (% of Control) 10^−8 M” value is listed as 99.3 % of Control. Also, the “Anti 5-HT action (% of Control) 10^−7 M” value in the assay with serotonin-2 receptor is 10.5 % of Control.

For the molecule `COc1cccc2c1C1(CN(CCCN3CCN(c4ccc(F)cc4)CC3)S2(=O)=O)OCCO1` [Compound No. 110, 2-[3-[4-(4-fluorophenyl)piperazin-1-yl]propyl]-5-methoxy-3,4-dihydro-2H-1,2-benzothiazin-4-one 1,1-dioxide ethylene acetal], in the assay with α1 receptor, the “Anti α1 action (% of Control) 10^−7 M” value is recorded as 81.1 % of Control and the “Anti α1 action (% of Control) 10^−8 M” value is given as 100 % of Control. For the same molecule, the “Anti 5-HT action (% of Control) 10^−7 M” value in the assay with serotonin-2 receptor is 5.6 % of Control.

As for `COc1cccc2c1C1(CN(CCCN3CCN(c4ccc(O)cc4)CC3)S2(=O)=O)OCCO1` [Compound No. 111, 2-[3-[4-(4-hydroxyphenyl)piperazin-1-yl]propyl]-5-methoxy-3,4-dihydro-2H-1,2-benzothiazin-4-one 1,1-dioxide ethylene acetal], in the assay on α1 receptor, the “Anti α1 action (% of Control) 10^−7 M” value was 98.6 % of Control and the “Anti α1 action (% of Control) 10^−8 M” value is listed as 100.9 % of Control. In addition, in the assay with serotonin-2 receptor, the “Anti 5-HT action (% of Control) 10^−7 M” value is listed as 10.9 % of Control.

In the case of `O=S1(=O)c2cccc(Cl)c2C2(CN1CCCN1CCN(c3ccc(F)cc3)CC1)OCCO2` [Compound No. 113, 5-chloro-2-[3-[4-(4-fluorophenyl)piperazin-1-yl]propyl]-3,4-dihydro-2H-1,2-benzothiazin-4-one 1,1-dioxide ethylene acetal], in the assay with α1 receptor, the “Anti α1 action (% of Control) 10^−7 M” value is on record as 89.3 % of Control and the “Anti α1 action (% of Control) 10^−8 M” value is 98.3 % of Control. Also, the “Anti 5-HT action (% of Control) 10^−7 M” value in the assay on serotonin-2 receptor is recorded as 49.5 % of Control.

Turning to `O=S1(=O)c2cccc(Cl)c2C2(CN1CCCN1CCN(c3ccc(O)cc3)CC1)OCCO2` [Compound No. 114, 5-chloro-2-[3-[4-(4-hydroxyphenyl)piperazin-1-yl]propyl]-3,4-dihydro-2H-1,2-benzothiazin-4-one 1,1-dioxide ethylene acetal], in the assay on α1 receptor, the “Anti α1 action (% of Control) 10^−7 M” value was 98.9 % of Control and the “Anti α1 action (% of Control) 10^−8 M” value is 101.1 % of Control. Further, in the assay with serotonin-2 receptor, the “Anti 5-HT action (% of Control) 10^−7 M” value is given as 23.5 % of Control.
